{
  "source": "patent US6653344B2",
  "about": "“Pharmaceutical preparations containing a dibenzocyclooctane lignan derivative for treatment of neurodegenerative disease” (Elcom Bio Technology Co., Ltd., priority 2000, dated 2003)",
  "test_system": "nitric oxide (NO) content in glutamate-damaged primary cultured rat cortical cells",
  "assay": "Measurement of nitrite (Griess reagent), NO content",
  "format": "cell-based",
  "conditions": "compound 1 M (1 μM) for 1 hr before 100 M glutamate, 24 hr",
  "method": "The content of nitrite isolated into culture broth from first cultured cortical cells was assayed by using Griess reagent by Dawson's method (Dawson V L, Brahbhatt H P, Mong J A and Dawson T M (1994) Expression of inducible nitric oxide synthase causes delayed neurotoxicity in primary neuronal-glial cortical cultures. Neuropharmacology 33: 1425-1430).\nIn case glutamate is treated to first cultured cortical cells of mice, formation of NO is increased. […] When schizandrin is treated at the 1 μM concentration, it decreased NO content increased by glutamate. […] When deoxyschizandrin, gomisin N and wuweizisu C are treated at 1 uM concentration to first cultured cortical cells toxicity-induced by glutamate, those maintained about 50% of normal state activity of GSH-px and glutathione decreased by glutamate and have protective activity on the activity of antioxidant enzymes.\nRat cortical cultures were treated with compounds at the concentration of 1 M for 1 hr before exposure to 100 M glutamate and then maintained for 24 hr. Values given represent the mean SD (n=3).",
  "data": [
    {"smiles": "COc1cc2c(c(OC)c1OC)-c1c(cc(OC)c(OC)c1OC)C[C@](C)(O)[C@@H](C)C2", "note": "[schizandrin]", "values": [
      {"measurement": "Protection (NO content)", "value": 40.2, "unit": "%"}
    ]}
  ]
}
